According to the supplement of paper PMC10627819:

Legend:
[1] = system: S. aureus Newman; assay: Bliss interaction score (quartile over a dose matrix) (fitness difference); higher = more antagonism (negative = synergy)
In short: (§1)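 Quartiles summarise the Bliss score over technical, biological and donor/recipient replicates, where the score is observed minus expected fitness under a product model. Expected fitness uses single-drug values inferred from combination data. Fitness is OD595 at entry into stationary phase over the plate's robust no-drug mean, capped at 1.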

[2] = system: B. subtilis 168; assay: as above
In short: as §1

[3] = system: S. aureus DSM 20231; assay: as above
In short: as §1

[4] = system: S. pneumoniae D39V; assay: as above
In short: as §1

[5] = system: S. aureus Newman; assay: fitness (endpoint OD595 vs no drug) (fraction); higher = more growth
In short: (§2)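 At 37 °C, bacteria in TSB, LB Lennox or CY were grown in 384-well plates from a starting OD595 of 0.01. OD595 was measured every 30 min for 14 h, with the first reading used as background. Fitness is the optical density at the switch to stationary phase as a fraction of the robust mean of no-drug control wells, capped at 1.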

[6] = system: B. subtilis 168; assay: as above
In short: as §2

[7] = system: S. pneumoniae D39V; assay: as above
In short: as §2
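Throughout, for Bliss interaction score (quartile over a dose matrix): first quartile when negative (synergy) and third quartile when positive (antagonism).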

CC[C@H]1OC(=O)[C@H](C)[C@@H](O[C@H]2C[C@@](C)(OC)[C@@H](O)[C@H](C)O2)[C@H](C)[C@@H](O[C@@H]2O[C@H](C)C[C@H](N(C)C)[C@H]2O)[C@](C)(O)C[C@@H](C)CN(C)[C@H](C)[C@@H](O)[C@]1(C)O [Azithromycin] + O=C(O)c1cn(C2CC2)c2cc(N3CCNCC3)c(F)cc2c1=O [Ciprofloxacin]
Details	Bliss interaction score
[1]	0.102
[2]	0.228
[3]	0.105
[4]	-0.0524

fitness
Details	first compound 0.125 µg/mL	first compound 0.25 µg/mL	first compound 0.5 µg/mL
[5], partner 0.0375 µg/mL	0.684	0.697	0.547
[5], partner 0.075 µg/mL	0.631	0.697	0.581
[6], partner 0.0098 µg/mL	–	0.886	–
[6], partner 0.0195 µg/mL	–	0.781	0.702

[6], first compound 2 µg/mL, one replicate
Details	fitness
partner 0.0098 µg/mL	0.428
partner 0.0195 µg/mL	0.279
partner 0.039 µg/mL	0.258

CNC(C)C1CCC(N)C(OC2C(N)CC(N)C(OC3OCC(C)(O)C(NC)C3O)C2O)O1 (stereo not given) [Gentamicin] + COc1ccc(C[C@H](N)C(=O)N[C@H]2[C@@H](O)[C@H](n3cnc4c(N(C)C)ncnc43)O[C@@H]2CO)cc1 [Puromycin]
main component drawn
Details	Bliss interaction score
[1]	0.0455
[2]	-0.204
[3]	-0.278
[4]	-0.289

fitness, [5], one replicate, main component drawn
Details	first compound 0.375 µg/mL	first compound 0.75 µg/mL	first compound 1.5 µg/mL
partner 0.39 µg/mL	≥ 1	≥ 1	0.973
partner 0.78 µg/mL	≥ 1	≥ 1	≥ 1
partner 1.56 µg/mL	≥ 1	≥ 1	≥ 1

main component drawn
Details	fitness
[5], first compound 0.5 µg/mL, partner 0.39 µg/mL	0.979
[5], first compound 0.5 µg/mL, partner 0.78 µg/mL	≥ 1
[5], first compound 0.5 µg/mL, partner 1.56 µg/mL	≥ 1
[5], first compound 1 µg/mL, partner 0.39 µg/mL	≥ 1
[5], first compound 1 µg/mL, partner 0.78 µg/mL	≥ 1
[5], first compound 1 µg/mL, partner 1.56 µg/mL	≥ 1
[5], first compound 2 µg/mL, partner 0.39 µg/mL	0.994
[5], first compound 2 µg/mL, partner 0.78 µg/mL	≥ 1
[5], first compound 2 µg/mL, partner 1.56 µg/mL	≥ 1
[6], first compound 0.0625 µg/mL, partner 0.39 µg/mL	0.889
[6], first compound 0.25 µg/mL, partner 0.39 µg/mL	0.0531
[6], first compound 0.25 µg/mL, partner 0.78 µg/mL	0.0448
[6], first compound 0.25 µg/mL, partner 1.56 µg/mL	0.0402
[7], first compound 2 µg/mL, partner 1 µg/mL	0.955
[7], first compound 2 µg/mL, partner 2 µg/mL	0.915
[7], first compound 4 µg/mL, partner 1 µg/mL	0.984
[7], first compound 8 µg/mL, partner 1 µg/mL	0.906
[7], first compound 8 µg/mL, partner 4 µg/mL	0.19

CC1=C(C(=O)O)N2C(=O)[C@@H](NC(=O)[C@H](N)c3ccccc3)[C@H]2SC1 [Cephalexin] + Cn1nnc(-c2ccc(-c3ccc(N4C[C@H](CO)OC4=O)cc3F)cn2)n1 [Tedizolid]
Details	Bliss interaction score
[1]	0.0857
[2]	-0.0471
[3]	-0.121
[4]	0.304

fitness
Details	first compound 0.25 µg/mL	first compound 0.5 µg/mL	first compound 1 µg/mL	first compound 2 µg/mL	first compound 4 µg/mL
[5], partner 0.0625 µg/mL	0.965	0.999	0.967	–	–
[5], partner 0.125 µg/mL	0.914	0.901	0.924	–	–
[7], partner 0.03125 µg/mL	–	–	0.919	0.391	0.0118
[7], partner 0.0625 µg/mL	–	–	0.928	0.53	0.113
[7], partner 0.125 µg/mL	–	–	0.778	0.529	0.115

fitness, [7], one replicate
Details	first compound 0.125 µg/mL	first compound 0.25 µg/mL	first compound 0.5 µg/mL
partner 0.125 µg/mL	0.857	0.887	0.943
partner 0.25 µg/mL	0.762	0.775	0.793
partner 0.5 µg/mL	0.282	0.332	0.359

CC[C@H]1OC(=O)[C@H](C)[C@@H](O[C@H]2C[C@@](C)(OC)[C@@H](O)[C@H](C)O2)[C@H](C)[C@@H](O[C@@H]2O[C@H](C)C[C@H](N(C)C)[C@H]2O)[C@](C)(O)C[C@@H](C)CN(C)[C@H](C)[C@@H](O)[C@]1(C)O [Azithromycin] + CC1=C(C(=O)O)N2C(=O)[C@@H](NC(=O)[C@H](N)c3ccccc3)[C@H]2SC1 [Cephalexin]
Details	Bliss interaction score
[1]	0.0763
[2]	0.0757
[3]	-0.0843
[4]	-0.0716

fitness
Details	partner 0.125 µg/mL	partner 0.25 µg/mL	partner 0.5 µg/mL	partner 1 µg/mL
[5], first compound 0.125 µg/mL	–	0.892	0.918	0.907
[5], first compound 0.25 µg/mL	–	0.893	0.915	0.913
[5], first compound 0.5 µg/mL	–	0.739	0.719	0.728
[6], first compound 0.25 µg/mL	0.856	0.936	0.899	≥ 1
[6], first compound 0.5 µg/mL	0.823	0.845	0.849	0.867
[6], first compound 1 µg/mL	0.543	–	–	–

CNC(C)C1CCC(N)C(OC2C(N)CC(N)C(OC3OCC(C)(O)C(NC)C3O)C2O)O1 (stereo not given) [Gentamicin] + CN[C@H](CC(C)C)C(=O)N[C@H]1C(=O)N[C@@H](CC(N)=O)C(=O)N[C@H]2C(=O)N[C@H]3C(=O)N[C@H](C(=O)N[C@H](C(=O)O)c4cc(O)cc(O)c4-c4cc3ccc4O)[C@H](O)c3ccc(c(Cl)c3)Oc3cc2cc(c3O[C@@H]2O[C@H](CO)[C@@H](O)[C@H](O)[C@H]2O[C@H]2C[C@](C)(N)[C@H](O)[C@H](C)O2)Oc2ccc(cc2Cl)[C@H]1O [Vancomycin]
main component drawn
Details	Bliss interaction score
[1]	0.0347
[2]	0.0451
[3]	0.0984
[4]	-0.0655

fitness, [5], one replicate, main component drawn
Details	first compound 0.375 µg/mL	first compound 0.75 µg/mL	first compound 1.5 µg/mL
partner 0.1875 µg/mL	≥ 1	≥ 1	0.261
partner 0.375 µg/mL	≥ 1	≥ 1	0.0474
partner 0.75 µg/mL	≥ 1	≥ 1	0.0659

fitness, main component drawn
Details	first compound 0.5 µg/mL	first compound 1 µg/mL	first compound 2 µg/mL	first compound 4 µg/mL	first compound 8 µg/mL
[5], partner 0.1875 µg/mL	0.991	0.988	–	–	–
[5], partner 0.375 µg/mL	0.981	0.996	≥ 1	–	–
[5], partner 0.75 µg/mL	0.999	≥ 1	≥ 1	–	–
[7], partner 0.03125 µg/mL	–	–	0.974	≥ 1	0.98
[7], partner 0.0625 µg/mL	–	–	0.949	0.977	0.952
[7], partner 0.125 µg/mL	–	–	0.891	0.922	0.925
[7], partner 0.25 µg/mL	–	–	0.0786	0.0692	0.0847
[7], partner 0.5 µg/mL	–	–	0.0666	0.052	0.0832

CNC(C)C1CCC(N)C(OC2C(N)CC(N)C(OC3OCC(C)(O)C(NC)C3O)C2O)O1 (stereo not given) [Gentamicin] + C/C(=C\C(=O)OCCCCCCCCC(=O)O)C[C@@H]1OC[C@H](C[C@@H]2O[C@H]2[C@@H](C)[C@H](C)O)[C@@H](O)[C@H]1O [Pseudomonic acid]
main component drawn
Details	Bliss interaction score
[1]	0.0245
[2]	0.0456
[3]	0.0111
[4]	-0.134

fitness, [5], one replicate, main component drawn
Details	first compound 1 µg/mL	first compound 2 µg/mL	first compound 4 µg/mL
partner 0.0313 µg/mL	0.0474	0.0502	0.0545
partner 0.0625 µg/mL	0.0311	0.0417	0.0388
partner 0.125 µg/mL	0.0416	0.0314	0.0572

fitness, [7], main component drawn
Details	first compound 2 µg/mL	first compound 4 µg/mL	first compound 8 µg/mL
partner 0.03 µg/mL	0.922	0.923	0.881
partner 0.06 µg/mL	0.727	0.769	0.673
partner 0.12 µg/mL	0.396	0.393	0.323

CC[C@H]1OC(=O)[C@H](C)[C@@H](O[C@H]2C[C@@](C)(OC)[C@@H](O)[C@H](C)O2)[C@H](C)[C@@H](O[C@@H]2O[C@H](C)C[C@H](N(C)C)[C@H]2O)[C@](C)(O)C[C@@H](C)CN(C)[C@H](C)[C@@H](O)[C@]1(C)O [Azithromycin] + CC[C@H](C)[C@H](N)C1=N[C@H](C(=O)N[C@@H](CC(C)C)C(=O)N[C@H](CCC(=O)O)C(=O)N[C@H](C(=O)N[C@H]2CCCCNC(=O)[C@H](CC(N)=O)NC(=O)[C@@H](CC(=O)O)NC(=O)[C@H](Cc3cnc[nH]3)NC(=O)[C@@H](Cc3ccccc3)NC(=O)[C@H]([C@@H](C)CC)NC(=O)[C@@H](CCCN)NC2=O)[C@@H](C)CC)CS1 [Bacitracin]
main component drawn
Details	Bliss interaction score
[1]	-0.101
[2]	0.0819
[3]	-0.0556
[4]	0.0418

fitness, main component drawn
Details	partner 18.75 µg/mL	partner 37.5 µg/mL	partner 75 µg/mL	partner 150 µg/mL
[5], first compound 0.125 µg/mL	0.654	–	0.0145	–
[5], first compound 0.25 µg/mL	–	0.0979	0.0091	–
[5], first compound 0.5 µg/mL	–	0.0136	0.0029	–
[6], first compound 0.25 µg/mL	–	0.907	0.845	0.837
[6], first compound 0.5 µg/mL	–	0.773	0.76	–

[6], first compound 2 µg/mL, one replicate, main component drawn
Details	fitness
partner 37.5 µg/mL	0.0502
partner 75 µg/mL	0.0262
partner 150 µg/mL	0.0177

CC1=C(C(=O)O)N2C(=O)[C@@H](NC(=O)[C@H](N)c3ccccc3)[C@H]2SC1 [Cephalexin] + CCCCCCCCCC(=O)N[C@@H]1[C@H]([C@@H]([C@H](O[C@H]1OC2=C3C=C4C=C2OC5=C(C=C(C=C5)[C@H]([C@H]6C(=O)N[C@@H](C7=C(C(=CC(=C7)O)OC8[C@H]([C@H]([C@@H]([C@H](O8)CO)O)O)O)C9=C(C=CC(=C9)[C@H](C(=O)N6)NC(=O)[C@@H]4NC(=O)[C@@H]1C2=CC(=CC(=C2)OC2=C(C=CC(=C2)[C@H](C(=O)N[C@H](CC2=CC(=C(O3)C=C2)Cl)C(=O)N1)N)O)O)O)C(=O)O)O[C@H]1[C@@H]([C@H]([C@@H]([C@H](O1)CO)O)O)NC(=O)C)Cl)CO)O)O [Teicoplanin]
main component drawn
Details	Bliss interaction score
[1]	0.0429
[2]	0.0688
[3]	0.0334
[4]	0.0339

fitness, [5], main component drawn
Details	first compound 0.25 µg/mL	first compound 0.5 µg/mL	first compound 1 µg/mL
partner 0.1562 µg/mL	≥ 1	≥ 1	≥ 1
partner 0.3125 µg/mL	≥ 1	≥ 1	≥ 1
partner 0.625 µg/mL	≥ 1	≥ 1	≥ 1

fitness, [5], one replicate, main component drawn
Details	first compound 0.5 µg/mL	first compound 1 µg/mL	first compound 2 µg/mL
partner 0.62 µg/mL	0.827	0.855	0.847
partner 1.24 µg/mL	0.77	0.796	0.739
partner 2.48 µg/mL	0.565	0.498	0.587
